Results on two sequences are retold here after PMC4838304, “Effective Design of Multifunctional Peptides by Combining Compatible Functions” (PLoS Computational Biology, 2016).

Data set [1] is described as follows: Circular dichroism, secondary structure content (CONTIN/LL). The class given is physicochemical. Conditions: for Secondary Structure Random coil / Secondary Structure α-Helix / Secondary Structure β-Sheet: 0.3mg in 1mL, 20°C, far-UV CD, CONTIN/LL. The protocol: We studied the structural properties of the peptides in vitro, using circular dichroism (see Materials and Methods). The far-UV CD spectra for NLS-CE, NLS-α and NLS-α-CE in water matched the characteristics of a random coil conformation.
Circular dichroism spectra were recorded on a ChirascanTM CD Spectrometer (Applied Photophysics, UK) equipped with a peltier temperature controller. 0.3mg of each peptide was dissolved in 1mL of water or 50% aqueous trifluoroethanol and placed in quartz cuvettes of 0.1cm path length. Far-UV CD spectra were collected from 185 to 250 nm at 20°C. Spectra were averaged over 5 scans and the averaged blank spectra of solvents were subtracted. Ellipticity is reported as mean residue molar ellipticity and recorded in terms of molar elipticity [θ] (deg cm^2 dmol^−1). CONTIN/LL within the CDPro analysis software program was used to estimate the secondary structure content of the peptides.
For orientation: Circular dichroism is widely used to follow secondary structure.

Data set [2] relates to Escherichia coli strain DH5α. The class given is cell-based. Conditions: 12 h.
In the next data set the test system is BY4741 yeast cells. The data set is described as follows: Internalization assay in yeast, confocal microscopy. Format: cell-based, Saccharomyces cerevisiae. Conditions: TAMRA-labeled versions, 60 μM, BY4741, pictures at 0, 10 and 20 min. The source says: We first evaluated whether the designed peptides retained the activity of the templates. The presence of the NLS sequence may locate peptides in the nuclei of cells; for that to happen first the peptides have to be internalized. […] For yeast cells, confocal microscopy was used to evaluate CPP activity in our peptides (see Fig 2).
Fig 2 Designed peptides internalized into yeast cells. (A-F) Internalization assays in BY4741 yeast cells for peptide controls where Arg and Lys residues were replaced by Glu residues (A-C) and the original peptides (D-F). All peptides were used at 60 μM (final concentration) and labeled with the TAMRA fluorophore (see Table 1 and Materials and Methods for further details).
All 6 fluorogenic peptides (TAMRA-peptides, see Table 1) were prepared to 600μM in water as a 10X stock solution. Although all the peptides were apparently soluble in water, they all formed aggregates under the microscope. […] These samples were observed under a multi-photon confocal microscope (Olympus FV1000) and pictures were recorded at 0, 10 and 20 min after the peptide addition. […] Bright field images were chosen from the in-focus z-stack, whereas TAMRA images denote the average fluorescence across the entire z-stack to obtain the fluorescence inside the entire cell volume. Images were analyzed using Fiji (http://fiji.sc/Downloads#Fiji).

In data set [3] the test system is pheromone-signaling pathway (Fus1-eGFP) in MATa cells. The data set is described as follows: Pheromone signaling assay, Fus1-GFP expression and shmoo phenotype. Conditions: BY4741 fus1::eGFP, 60 μM peptide (20 μM for α-factor), 3h. The class given is cell-based, Saccharomyces cerevisiae. On the procedure:
Finally, the activity of the α-factor embedded in the peptides was evaluated by activation of the pheromone-signaling pathway in MATa cells of S. cerevisiae. We monitored the pheromone signaling activity by following the expression of the GFP-labeled Fus1 protein. Fus1 is among the proteins with the highest pheromone-induced expression and is required for cell-cell fusion during mating. […] The observed phenotype was consistent with the activation of signaling showing a mating protrusion, often called “shmoo” as well as the absence of budding due to inhibition of the Cdc28 cyclin [35, 36].
Fig 5 Pheromone activity. The pheromone signaling pathway is confirmed by the expression of Fus1-GFP, characteristic “shmoo” phenotype and the absence of budding observed in differential interference contrast (DIC) bright field. Concentrations were 20 μM for α-factor and 60 μM for all other peptides. The negative control was water without any peptide.
Pheromone signaling induction in Saccharomyces cerevisiae was measured by induction of eGFP fluorescence in a BY4741 strain containing the Fus1-eGFP construct in place of the wild type Fus1 (MATa his3Δ1 leu2Δ0 met15Δ0 ura3Δ0 fus1::eGFP HIS3MX6, obtained from the yeast GFP collection). The BY4741 fus1::eGFP strain was grown overnight in YPD to mid-log phase and diluted to 10^6 cells/mL. Samples were treated with the respective peptide concentrations and incubated for 3h before mixing 1:1 with low-diffusivity agarose suspended on a covered glass slide. Images were taken with an Olympus FV10 confocal microscope using a 60x objective with […]. Images were analyzed using Fiji (www.fiji.sc). The only modifications applied to the images were separation of the bright field and GFP channels, adjustment of brightness and contrast to 50% and addition of scale bars.

A further data set relates to pGREG546 plasmid. Briefly: Electrophoretic mobility shift assay (EMSA), DNA retention. Format: binding. Conditions: 1μg pGREG546, DNA to peptide charge ratio 1:1 or 1:4, 30 minutes. The source says:
To test the ability of the designed peptides to bind nucleic acids, we evaluated by electrophoretic mobility shift assays (EMSAs) the retention of DNA by the designed peptides. Each EMSA was executed with peptide quantities that were multiples of the DNA to peptide charge ratio. A DNA to peptide charge ratio of 1:1 is represented by the number of positive charges of the peptide required to neutralize the negative charges of the DNA backbone. Retention in the gel is an indirect measure of the fraction of positive charges within the peptide participating in binding the DNA molecules. All EMSA assays were performed using the yeast plasmid pGREG546. As negative control, pGREG546 without any peptide was used, and as positive control the known DNA-binding cell penetrating peptide MPG was used. […] However, retention in the gel was observed when NLS was joined to any larger peptide fragment.
Fig 4 DNA binding. (A) Quantification of DNA retention obtained from three independent electrophoretic mobility shift assays. All measurements are shown and horizontal bars denote the sample mean. Representative gels are shown in (B-C).
1μg of pGREG546 plasmid was pre-incubated with the required quantity of each peptide to result in a 1:1 or 1:4 peptide charge to DNA charge ratio. Samples were incubated for 30 minutes and loaded on a 1% Agarose gel in SB buffer. DNA affinity was quantified by measuring the mean pixel intensity of the DNA bands with Fiji (http://fiji.sc) and normalizing to the intensity range between an empty spot on the gel and the intensity of the pGREG546 plasmid without any added peptide. Analysis scripts for the EMSA experiments as well as the raw data can be found with the distributed source code at http://bis.ifc.unam.mx/software/dcf.
A general note: A gel shift assay detects complexes by their altered migration in electrophoresis.

Ends that are not written are not given here.

In the case of “FRKWRRKPKKKRKVWWRKVKRRWHWLQLKPGQPMY [NLS-α-CE]”, in data set [1] (50% TFE), the “Secondary Structure Random coil” value was 59%, the “Secondary Structure α-Helix” value amounted to 10% and the “Secondary Structure β-Sheet” value is recorded as 31%. The “aggregation suggested by decrease in negative ellipticity” value in data set [1] (50% TFE, CD spectra) is listed as “TFE promoted aggregation of the peptides”. Moreover, in data set [1] (water), the “Secondary Structure Random coil” value is reported as 64%, the “Secondary Structure α-Helix” value is given as 6% and the “Secondary Structure β-Sheet” value amounted to 30%. Moreover, the “E. coli MIC for 100% inhibition” value in data set [2] is 2 µM. The “internalization into yeast cells” value in the data set on BY4741 yeast cells was “quickly accumulate in the cell membrane and inside the yeast cells”. Also, the “pheromone signaling activity (Fus1-GFP expression, phenotype)” value in data set [3] is recorded as “partial shmoo-like phenotypes”. Further, the “DNA binding in EMSA, in words” value with pGREG546 plasmid is reported as “effective DNA-binding activity”.

On to “KRRWRFVWMNPKKKRKVPPWPYLLWWHWLQLKPGQPMY [chimera]”, for which, in data set [1] (50% TFE), the “Secondary Structure Random coil” value turned out to be 48%, the “Secondary Structure α-Helix” value turned out to be 24% and the “Secondary Structure β-Sheet” value was determined as 28%. In data set [1] (water), the “Secondary Structure Random coil” value is listed as 59%, the “Secondary Structure α-Helix” value was 8% and the “Secondary Structure β-Sheet” value is reported as 33%. Further, in data set [2], the “E. coli MIC for 100% inhibition” value was found to be 22 µM. In the data set on BY4741 yeast cells, the “internalization into yeast cells” value was “quickly accumulate in the cell membrane and inside the yeast cells”. For the same sequence, the “pheromone signaling activity (Fus1-GFP expression, phenotype)” value in data set [3] is “partial shmoo-like phenotypes”. The “DNA binding in EMSA, in words” value in the data set with pGREG546 plasmid is “effective DNA-binding activity”.
